Data as given in patent publication US5416090A, “Method of treating inflammation” (priority 1992, dated 1995).
Read-outs that look alike come from different tables or passages of the source.

Experiments:
D-2 dopamine = settings: background; cited from earlier work
α adrenergic receptors = settings: background; cited from earlier work
[1] = test system: delayed type hypersensitivity (picryl chloride induced foot pad swelling); assay: Murine delayed type hypersensitivity (DTH) response, picryl chloride; format: in vivo, mouse (Balb/c)
Protocol: The activity of ergoline compounds was also evaluated in a murine delayed-type hypersensitivity (DTH) assay. The DTH assay was performed in substantial accordance with the method set forth in Example 1. Briefly, mice were sensitized by topical administration of picryl chloride on day 1 of the assay. On day 4 paw size was determined and recorded and the paw was then challenged with picryl chloride. The challenged paw was remeasured on day 5 to quantitate the DTH response via the increase in paw size.
Male Balb/c mice (Charles River) weighing 20 to 25 g were used in all DTH studies. When adrenalectomized studies were carried out, sham surgery and adrenalectomized mice were obtained from the vendor. Animals were maintained on a 12:12 hour light:dark cycle. Mice were allowed ad lib access for food (Purina lab chow) and water (normal saline for adrenalectomized animals).
A DTH response was assessed by measuring the degree of rear foot pad swelling induced by picryl chloride. On day 0, mice were sensitized with 100 μl of 5% picryl chloride (in ethanol), which was applied to a shaved abdomen. Negative control groups were shaved but not sensitized. On day 3, mice were anesthetized with methoxyflurane, and the baseline rear foot pad thickness was measured with a micrometer (Mitutoyo) in μ, and was recorded in duplicate. Fifty μl of picryl chloride was then applied to each pad with a pipet (Rainen) while the animal was unconscious. The negative controls also received picryl chloride at this point to control for primary irritancy. Twenty-four hours later, the mice were sacrificed by CO2 asphyxiation and each rear foot pad was again measured in duplicate, and any evidence of foot pad swelling was calculated. The mean rear foot swelling change of both pads for each animal from days 3 to 4 was used as the index of immune function in the DTH assay.
Unless otherwise stated all animals were given four subcutaneous doses of test compound just prior to picryl chloride sensitization on day 0, on day 1 and day 2, and just prior to picryl chloride challenge on day 3. In a few experiments, compounds were administered via oral or intraperitoneal routes. All drugs were delivered as suspensions in 1% carboxy-methylcellulose (also contained 0.8% NaCl, 1% polysorbate-80, 1.4% benzyl alcohol). Carboxymethyl-cellulose (1%) was used in control injections.

[2] = test system: 5-HT induced paw swelling; assay: Serotonin (5-HT) induced acute paw inflammation; format: in vivo, rat (Lewis); settings: FIG. 2
Protocol: In one such model, the acute paw inflammation model, rats were treated with test compounds one hour prior to plantar injection of a 50 μl volume of a phlogistic. Animals were sacrificed and paw weights were determined at a prescribed time interval following the plantar injections. When 1% carrageenan was used as the phlogistic, the time interval between injection and sacrifice was 3 hours. When serotonin (5-hydroxytryptamine (5-HT)) was used, as the phlogistic agent the time interval was one hour. When substance P was used, the time interval was 30 minutes. The acute paw inflammation model is described in more detail in Example 3.
Male Lewis rats (Charles River or Harlan Sprague Dawley) weighing 180 to 250 g were used in all acute inflammatory studies. Animals were maintained on a 12:12 hour light:dark cycle and were allowed ad lib access for food (Purina lab chow) and water. Experimental groups consisted of 5 or 6 rats.
Acute paw swelling was induced by the intraplantar injection of phlogistic agents into the left hind paw, with the uninjected right hind paw serving as the comparative control. One hour after dosing with test compound, 50 μl of serotonin (Sigma; 0.005 to 0.2 mg/ml in normal saline) or substance P (Sigma; 0.01 or 0.05 mg/ml in 10% thiorphan in normal saline) or carrageenan (Marine Colloidal or Sigma Type IV; 1% in normal saline) were injected under the skin of the left hind paw, while the animal was restrained in a plastic cone. Negative controls were given 50 μl intradermal injections of normal saline (serotonin or carrageenan assays) or 10% thiorphan (substance P assays) into the left hind paw. One hour following injection of serotonin, or 30 minutes following injection of substance P, or 180 minutes following injection of carrageenan, the animals were sacrificed by CO2 asphyxiation. The right and left hind paws were cut just proximal to the tibiotarsal joint and weighed. The difference in weight between an individual animal's left and right paws were used as an indicator of tissue swelling.
As indicated above, test compounds are administered as a one hour pretreatment. In one series of experiments, 24 hour and 48 hour drug pretreatment periods were used. Test compounds were dosed intraperitoneally as a suspension in 1% carboxymethylcellulose.

[3] = test system: carrageenan induced paw swelling; assay: Carrageenan edema model (acute paw inflammation); format: in vivo, rat (Lewis)
[4] = test system: lipoidal amine induced arthritis; assay: Lipoidal amine induced polyarthritis (hind paw volume and weight); format: in vivo, rat (Lewis); settings: Rattus norvegicus
Protocol: Lipoidal amine induced polyarthritis is an animal arthritis model originally described by Chang, Y., et al. in Arthritis and Rheumatism 23:62-71 (1980). The lipoidal amine induced polyarthritis results from injection of N,N-dioctadecyl-N^1,N-bis(2-hydroxyethyl) propanediamine (7.5 mg/kg Lewis rat (220-225 g)), which is suspended in oil, intradermally at the base of the tail.

Parkinsonism = settings: background; cited from earlier work
[5] = Table 1, single oral dose 0.3 mg/kg
[6] = Table 1, single oral dose 1.0 mg/kg
[7] = Table 1, single oral dose 3.0 mg/kg
[8] = Table 1, single oral dose 10.0 mg/kg
[9] = Table 2, single oral dose 0.01 mg/kg
[10] = Table 2, single oral dose 0.03 mg/kg
[11] = Table 2, single oral dose 0.1 mg/kg
[12] = Table 2, single oral dose 0.3 mg/kg

In the case of `CCCN1C[C@H](CSC)C[C@@H]2c3cccc4[nH]cc(c34)C[C@H]21` [Compound 2], the “D-2 dopamine agonist activity” value (D-2 dopamine) is given as “D-2 dopamine agonists”, the “action at α adrenergic receptors” value (α adrenergic receptors) is given as “act at α adrenergic receptors” and the “reduction of paw swelling (DTH)” value ([1]; 1 mg/kg) is given as “significantly reduced paw swelling”. For the same compound, the “reduction of paw swelling (DTH)” value ([1]; 3 mg/kg) was “significantly reduced paw swelling”, the “reduction of paw swelling (DTH)” value ([1]; 10 mg/kg) was “significantly reduced paw swelling” and the “effect on 5-HT induced paw swelling” value [2] was “diminish 5-HT induced paw swelling”. The “% Inhibition” value [3, 5] was 60%, the “Paw Weight Difference” value [3, 5] was 0.290 ± 0.028 g and the “% Inhibition” value [3, 6] was 60%. For the same compound, the “Paw Weight Difference” value [3, 6] was 0.295 ± 0.019 g, the “% Inhibition” value [3, 7] was 60% and the “Paw Weight Difference” value [3, 7] was 0.292 ± 0.017 g. The “% Inhibition” value [3, 8] was 60%, the “Paw Weight Difference” value [3, 8] was 0.293 ± 0.018 g and the “% Inhibition” value [3, 9] was 1%. The “Paw Weight Difference” value [3, 9] was 0.820 ± 0.033 g, the “% Inhibition” value [3, 10] was 0% and the “Paw Weight Difference” value [3, 10] was 1.009 ± 0.056 g. For the same compound, the “% Inhibition” value [3, 11] was 11%, the “Paw Weight Difference” value [3, 11] was 0.751 ± 0.045 g and the “% Inhibition” value [3, 12] was 63%. For the same compound, the “Paw Weight Difference” value [3, 12] was 0.313 ± 0.045 g, the anti-inflammatory properties ([3]; Tables 1 and 2) was “significant anti-inflammatory properties” and the minimal effective dose ([4]; read-out: dosage giving statistically significant decrease in paw volume, FIG. 1 Panel A) was no less than 3 mg/kg. The minimal effective dose ([4]; read-out: dosage giving statistically significant decrease in paw weight, FIG. 1 Panel B) was no less than 3 mg/kg and the “effect on symptoms of Parkinsonism” value (Parkinsonism) was “effective in the treatment of some symptoms of Parkinsonism”.
